Measured values published in publication PMC8582824, “Targeting DDX3X Helicase Activity with BA103 Shows Promising Therapeutic Effects in Preclinical Glioblastoma Models” (Cancers, 2021).
In brackets after ≈: the same amount, converted by molar mass.

Key:
DDX3X helicase activity = target: T1, DDX3X helicase activity (Homo sapiens, UniProt O00571); experiment: FRET-based DDX3X helicase assay; format: biochemical; settings: FRET helicase assay, recombinant DDX3X; for IC50: read-out: IC50 ± SD, DDX3X anti-enzymatic (helicase) activity
T1 construct: Recombinant his-tagged human full length DDX3X; His tag; made in house; host or cells: ShuffleT7 E. coli
T1 sequence (O00571 whole entry): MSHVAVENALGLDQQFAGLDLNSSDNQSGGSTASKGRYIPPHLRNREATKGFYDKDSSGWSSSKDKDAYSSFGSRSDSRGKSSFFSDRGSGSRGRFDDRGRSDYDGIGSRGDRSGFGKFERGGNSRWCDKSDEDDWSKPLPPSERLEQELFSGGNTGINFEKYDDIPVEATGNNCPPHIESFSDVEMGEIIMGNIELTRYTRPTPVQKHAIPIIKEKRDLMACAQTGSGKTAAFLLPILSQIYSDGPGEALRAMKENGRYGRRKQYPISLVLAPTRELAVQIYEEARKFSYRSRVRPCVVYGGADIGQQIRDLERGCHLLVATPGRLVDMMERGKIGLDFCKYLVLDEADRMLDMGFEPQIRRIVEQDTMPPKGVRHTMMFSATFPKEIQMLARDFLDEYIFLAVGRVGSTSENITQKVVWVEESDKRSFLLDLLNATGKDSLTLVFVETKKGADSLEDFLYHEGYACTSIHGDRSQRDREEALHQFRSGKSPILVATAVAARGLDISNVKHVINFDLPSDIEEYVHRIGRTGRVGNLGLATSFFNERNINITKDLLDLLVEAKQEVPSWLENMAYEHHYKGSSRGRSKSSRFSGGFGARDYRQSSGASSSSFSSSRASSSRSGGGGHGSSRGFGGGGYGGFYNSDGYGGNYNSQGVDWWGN
Method: Recombinant his-tagged human full length DDX3X cloned the E. coli expression vector pET-30a(+). ShuffleT7 E. coli cells were transformed with the plasmid and grown at 37 °C up to OD600 = 0.7. DDX3X expression was induced with 0.5 mM IPTG at 15 °C O/N. Cells were harvested by centrifugation, lysed, and the crude extract was centrifuged at 100,000 g for 60 min at 4 °C in a Beckman centrifuge before being loaded onto a FPLC Ni-NTA column (GE Healthcare, Chicago, IL, USA). The column was equilibrated in Buffer A (50 mM Tris-HCl pH 8.0, 250 mM NaCl, 25 mM Imidazole and 20% glycerol). After extensive washing in Buffer A, the column was eluted with a linear gradient in Buffer A from 25 to 250 mM Imidazole. Proteins in the eluted fractions were visualized on SDS-PAGE and tested for the presence of DDX3X by Western blot with anti-DDX3X A300-475A (Bethyl Laboratories, Montgomery, TX, USA) at 1:4000 dilution in 5% milk. Fractions containing the purest DDX3X protein were pooled and stored at −80 °C.
The dsRNA substrate for the helicase assay was prepared by hybridizing two ss RNA oligonucleotides with the following sequences: • Fluo-FAM 5′ […] 3′ • Qu-BHQ1 5′ […] 3′ • DNA capture 5′ […] 3′.
The sequence in Fluo-FAM complementary to Qu-BHQ1 is underlined. Fluo-FAM carries a 6-carboxyfluorescein fluorophore at its 3′ end, while Qu-BHQ1 carries a Black Hole quencher group at its 5′ end. The DNA capture oligonucleotide is complementary to the Qu-BHQ1 oligonucleotide, but it bears no modifications. A helicase assay using the dsRNA substrate was performed in 20 mM TrisHCl (pH 8), 70 mM KCl, 2 mM MgCl2, 2 mM dithiothreititol, 12 units RNasin (Promega), 2 mM ATP, 50 nM dsRNA, and 100 nM capture strand in 20 μL of reaction volume. The unwinding reaction was started by adding 60 pmols of DDX3X recombinant protein and carried out at 37 °C for 40 min using a LightCycler 480 (Roche, Basel, Switzerland). The fluorescence intensity was recorded every 30 s. Values of fluorescence signal in the presence or in the absence of inhibitor molecules were analyzed by linear interpolation, and the corresponding slope values were used to determine the apparent unwinding rate.
The IC50 values have been calculated from dose–response curves. Data (in triplicate) were plotted and analyzed by least-squares nonlinear regression, according to the method of Marquardt–Levenberg, with the computer program GraphPad Prism 6.0. Data were fitted to the following equation:Eobs = Emax/(1 + (IC50/[I])^n)(1) where E(obs) is the observed enzymatic activity in the presence of each inhibitor dose [I]; E(max) is the maximal enzymatic activity in the absence of the inhibitor; and n is an exponential term to take into account sigmoidal dose–response curves.
All the compounds were tested for their ability to inhibit the helicase activity of DDX3X using a fluorescence resonance energy transfer (FRET)-based assay, as previously described. Values of fluorescence signal in the presence or in the absence of inhibitor molecules were analyzed by linear interpolation (for details, see Methods 2.3.2).

Water solubility assay = format: physicochemical; settings: 27 °C, thermodynamic from solid, read-out: LogS (aqueous solubility) (converted)
Method: Preliminary in vitro ADME analysis was performed to early evaluate the pharmacokinetic (PK) profile of our compounds (Figure 8). Aqueous solubility was calculated by LC-MS-MS analysis. An aliquot of 1 mg of compound was stirred for 24 h at 27 °C in 1 mL of water. The mixture was filtered, and the quantity of solubilized compound was determined. Passive permeability was determined using parallel artificial membrane permeability assay (PAMPA). Microsomal metabolic stability was determined by LC-UV-MS analysis by incubating compounds with human liver microsomes at 37 °C for 60 min (for details, see the Supporting Information). […]
Each solid compound (1 mg) was added to 1 mL of water. The samples were shaked in a shaker bath at room temperature for 24-36 h. The suspensions were filtered through a 0.45 μm nylon filter (Acrodisc), and the solubilized compound determined by LC-MS-MS assay. For each compound the determination was […]
For the quantification was used an LC-MS system consisted of a Varian apparatus (Varian Inc) including a vacuum solvent degassing unit, two pumps (212-LC), a Triple Quadrupole MSD (Mod. 320-LC) mass spectrometer with ES interface and Varian MS Workstation System Control Vers. 6.9 software.
Chromatographic separation was obtained using a Pursuit C18 column (50 x 2.0 mm) (Varian) with 3 μm particle size and gradient elution: eluent A being ACN and eluent B consisting of water. […] The flow rate was 0.2 mL min-1 and injection volume was 5 μL. The instrument operated in positive mode and parameters were: detector 1850 V, drying gas pressure 25.0 psi, desolvation temperature 300.0 °C, nebulizing gas 40.0 psi, needle 5000 V and shield 600 V. Nitrogen was used as nebulizer gas and drying gas. […]
Chromatographic analysis was performed with an Agilent 1100 LC/MSD VL system (G1946C) (Agilent Technologies, Palo Alto, CA) constituted by a vacuum solvent degassing unit, a binary high-pressure gradient pump, an 1100 series UV detector, and an 1100 MSD model VL benchtop mass spectrometer.
Chromatographic separation was obtained using a Varian Polaris C18-A column (150-4.6 mm, 5 μm particle size) and gradient elution: eluent A being ACN and eluent B consisting of water. The analysis started with 2% […]
flow rate was 0.8 mL min-1 and injection volume was 20 μL.
The Agilent 1100 series mass spectra detection (MSD) single-quadrupole instrument was equipped with the orthogonal spray API-ES (Agilent Technologies, Palo Alto, CA). Nitrogen was used as nebulizing and drying gas. The pressure of the nebulizing gas, the flow of the drying gas, the capillary voltage, the fragmentor voltage, and the vaporization temperature were set at 40 psi, 9 L/min, 3000 V, 70 V, and 350 °C, respectively. […]
Spectra were acquired over the scan range m/z 100-1500 using a step size of 0.1 u. […]

Row | IC50 (DDX3X helicase activity) [nM] | IC50 ± SD, DDX3X anti-enzymatic (helicase) activity (DDX3X helicase activity) | solubility at 24 h (Water solubility assay) [µM] | Compound
1 | 100 ± 30 | submicromolar range | < 0.0363 | CC(C)CCc1cn(-c2ccc(NC(=O)Nc3cccc4cnccc34)cn2)nn1 [Compound 10, 1-(6-(4-Isopentyl-1H-1,2,3-triazol-1-yl)pyridin-3-yl)-3-(isoquinolin-5-yl)urea]
2 | 70 ± 20 | submicromolar range | 0.275 (≈ 0.111 µg/mL) | CCCCc1nnc(-c2ccc(NC(=O)Nc3ccccc3C(F)(F)F)cc2)[nH]1 [Compound 4, 1-(4-(5-Butyl-4H-1,2,4-triazol-3-yl)phenyl)-3-(2-(trifluoromethyl)phenyl)urea]
3 | 400 ± 50 | submicromolar range |  | CCCCc1cn(-c2ccc(NC(=O)Nc3ccccc3C(F)(F)F)cc2)nn1 [BA103, 1-(4-(4-Butyl-1H-1,2,3-triazol-1-yl)phenyl)-3-(2-(trifluoromethyl)phenyl)urea]
4 |  | submicromolar range | < 0.0251 | CCCCn1nnc(-c2ccc(NC(=O)Nc3ccccc3C(F)(F)F)cc2)n1 [Compound 6, 1-(4-(2-Butyl-2H-tetrazol-5-yl)phenyl)-3-(2-(trifluoromethyl)phenyl)urea]
5 |  |  | < 0.0251 | CCCCc1nnc(-c2ccc(NC(=O)Nc3ccccc3C(F)(F)F)cc2)o1 [Compound 3, 1-(4-(5-Butyl-1,3,4-oxadiazol-2-yl)phenyl)-3-(2-(trifluoromethyl)phenyl)urea]

Row | Compound | IC50 (DDX3X helicase activity) [nM] | IC50 ± SD, DDX3X anti-enzymatic (helicase) activity (DDX3X helicase activity) | solubility at 24 h (Water solubility assay) [µM]
6 | CCCCc1cn(-c2ccc(NC(=O)Nc3ccccc3C)cc2)nn1 [Compound 1, reference compound] | 300 ± 70 |  | 
